# In PubChem BioAssay (NCI):
# Values joined by “and” are separate entries in the source; they are usually repeats but may differ in a detail not shown here. Equal entries are not always repeated.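 The compound was tested at five concentrations on cells cultured in 96-well plates, with a 48-hour exposure period. Abbreviation: GI50, concentration required for 50% inhibition of growth. TGI marks complete inhibition of growth.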
# Columns and labels:
# Assay in all cases: DTP human tumour cell line panel, 48 h
# SNB-19 CNS = system: SNB-19 CNS
# COLO 205 colon = system: COLO 205 colon
# OVCAR-4 ovarian = system: OVCAR-4 ovarian
# LOX IMVI melanoma = system: LOX IMVI melanoma
# SNB-75 CNS = system: SNB-75 CNS
# HL-60(TB) leukemia = system: HL-60(TB) leukemia
# OVCAR-8 ovarian = system: OVCAR-8 ovarian
# A549 NSCLC = system: A549 NSCLC
# OVCAR-5 ovarian = system: OVCAR-5 ovarian
# K-562 leukemia = system: K-562 leukemia
Compound,GI50 (SNB-19 CNS) [µM],TGI (SNB-19 CNS) [µM],GI50 (COLO 205 colon) [µM],TGI (COLO 205 colon),GI50 (OVCAR-4 ovarian) [µM],TGI (OVCAR-4 ovarian),GI50 (LOX IMVI melanoma) [µM],TGI (LOX IMVI melanoma),GI50 (SNB-75 CNS) [µM],TGI (SNB-75 CNS),GI50 (HL-60(TB) leukemia) [µM],TGI (HL-60(TB) leukemia),GI50 (OVCAR-8 ovarian) [µM],TGI (OVCAR-8 ovarian),GI50 (A549 NSCLC) [µM],TGI (A549 NSCLC) [µM],GI50 (OVCAR-5 ovarian),TGI (OVCAR-5 ovarian),GI50 (K-562 leukemia),TGI (K-562 leukemia)
Oc1ccc(-c2nnc3sc(-c4ccc(F)cc4)nn23)cc1,21.3,> 100,16.9,34.1 µM,> 100,> 100 µM,34.5,> 100 µM,22.8,43.3 µM,> 100,> 100 µM,48.3,> 100 µM,> 100,> 100,> 100 µM,> 100 µM,> 100 µM,> 100 µM
O=C1C(c2c(O)[nH]c3ccc(S(=O)(=O)O)cc23)=Nc2ccccc21,,> 100,,> 100 µM,,> 100 µM,,> 100 µM,,> 100 µM,,> 100 µM,,> 100 µM,,> 100,,> 100 µM,,> 100 µM
NC(=O)C(=O)N/N=C1/c2ccccc2CC1C1(O)C(=O)Nc2c(Cl)cc(Cl)cc21 (configuration not stated),,> 100,,> 100 µM,,> 100 µM,,> 100 µM,,> 100 µM,,> 100 µM,,> 100 µM,,> 100,,> 100 µM,,> 100 µM
C[n+]1c(-c2ccccc2)cc2/c(=C\c3ccc([N+](=O)[O-])cc3)c3ccccc3n21,,> 36.1,,> 100 µM,,> 100 µM,,17.6 µM,,15.6 µM,,3.07 µM,,> 26 µM,,> 100,,54.2 µM,,> 100 µM
COc1cc(/C=C/C(=O)O)ccc1C(=O)O/C=C/c1ccccc1,,> 100,,> 100 µM,,> 100 µM,,> 100 µM,,> 100 µM,,> 100 µM,,> 100 µM,,> 100,,> 100 µM,,> 100 µM
COCOc1ccc(OC)cc1,,> 100,,> 100 µM,,> 100 µM,,> 100 µM,,> 100 µM,,> 100 µM,,> 100 µM,,> 100,,> 100 µM,,> 100 µM
C=C1C(=O)OC2/C=C(\CO)C(OC(C)=O)CC(O)/C(C)=C/C(OC(=O)C(C)CC)C12 (configuration not stated),,> 100,,28.8 µM and 24.3 µM,,32.5 µM and > 100 µM,,29.3 µM and 38.3 µM,,69.3 µM and 96.3 µM,,39.6 µM and 30.9 µM,,36.4 µM and 52.1 µM,,> 100,38.9 µM and 17 µM,> 92.8 µM and 32.2 µM,5.62 µM and 36.9 µM,21.4 µM and > 100 µM
CCC[C@H]1C(=O)N=C(N)N1C(=O)OCc1ccccc1,,> 100,,> 100 µM,,> 100 µM,,> 100 µM,,> 100 µM,,> 100 µM,,> 100 µM,,,,> 100 µM,,> 100 µM
C/C(=C\c1ccccc1)C(=O)CCN1CCOCC1,,> 62.1,,31 µM,,32.9 µM,,34.6 µM,,> 66.1 µM,,> 74.3 µM,,41.4 µM,,> 100,,33.4 µM,,> 69.7 µM
Nc1nn2c(C(Br)Br)cc(C(Br)Br)nc2c1[N+](=O)[O-],,3.05,,1.94 µM,,,,0.799 µM,,2.29 µM,,0.431 µM,,,,20.1,,3.12 µM,,0.857 µM
O=C(NC(Cc1c[nH]c2ccccc12)C(=O)O)/C(=C/c1ccccc1O)NC(=O)c1ccccc1 (configuration not stated),,> 100,,> 100 µM,,> 100 µM,,> 100 µM,,38.5 µM,,> 100 µM,,28.9 µM,,> 100,,> 100 µM,,> 100 µM
Cc1ccc(S(=O)(=O)Oc2cc(N)c3c(n2)CCC3)cc1,,> 100,,> 100 µM,,> 100 µM,,> 100 µM,,> 100 µM,,> 100 µM,,> 100 µM,,> 100,,> 100 µM,,> 100 µM
CCOP(=O)(OCC)C1C(CO)OC(n2ccc(=O)[nH]c2=O)C1O (configuration not stated),,> 100,,,,> 100 µM,,> 100 µM,,> 100 µM,,> 100 µM,,> 100 µM,,> 100,,,,> 100 µM
CC(C)(C)N=c1n(C(C)(C)C)oc(=O)n1C(C)(C)C,,> 100,,> 100 µM,,> 100 µM,,> 100 µM,,> 100 µM,,> 100 µM,,> 100 µM,,> 100,,> 100 µM,,> 100 µM
O=C(CN1CCCCC1)CC(O)(C(F)(F)F)C(F)(F)F,,> 100,,> 100 µM,,> 100 µM,,> 100 µM,,> 100 µM,,> 100 µM,,> 100 µM,,> 100,,> 100 µM,,> 100 µM
O=C1CCC(=Nc2ccc(Cl)cc2)N1C(=O)COc1ccc(OCC(=O)N2C(=O)CSC2=Nc2ccc(Cl)cc2)cc1,,> 100,,> 100 µM,,> 100 µM,,> 100 µM,,91.9 µM,,> 100 µM,,> 100 µM,,> 100,,> 100 µM,,> 100 µM
CN(C)c1ccc(-c2c(C#N)c(S)n(NS(=O)(=O)c3ccccc3)c(=O)c2C#N)cc1,,> 100,,> 100 µM,,74.2 µM,,> 100 µM,,> 100 µM,,85.2 µM,,56.8 µM,,> 100,,> 100 µM,,> 100 µM
Cc1nn(C(=O)Cc2ccccc2)c2c1C(c1ccccc1O)SC(N)=N2 (configuration not stated),,> 100,,> 100 µM,,,,> 100 µM,,> 100 µM,,> 100 µM,,> 100 µM,,> 100,,,,> 100 µM
CC1(C)O[C@@H]2COC(=O)[C@@H]2O1,,> 100,,> 100 µM,,> 100 µM,,> 100 µM,,> 100 µM,,> 100 µM,,> 100 µM,,> 100,,> 100 µM,,> 100 µM
Cc1cn2c(/C=C3/C(=O)Nc4cccc(Cl)c43)c(Cl)nc2s1,,> 100,,,,> 100 µM,,> 100 µM,,43.6 µM,,> 100 µM,,> 100 µM,,> 100,,> 100 µM,,> 100 µM
Cc1cc(C)c2c(=O)n(CN3CC4Nc5ccccc5C4C3)sc2n1 (configuration not stated),,> 100,,71.5 µM,,42.2 µM,,48.5 µM,,,,63.2 µM,,52 µM,,> 100,,42.4 µM,,92.7 µM
CC(=O)N/N=C1/NN(C(C)=O)C2(S1)C(=O)Nc1ccc(Br)cc12 (configuration not stated),,> 100,,,,> 100 µM,,> 100 µM,,> 100 µM,,> 100 µM,,> 100 µM,,> 100,,> 100 µM,,> 100 µM
